# Columns and labels:
# Type in all cases: cell-based, human
# OCT4 = assay: FACS analysis for OCT4; conditions: after several single cell suspension passages, O3 medium
# Method: OCT4 expression was analyzed as described in Ludwig, T. E. et al. Derivation of human embryonic stem cells in defined conditions. Nat. Biotechnol. 24, 185-187 (2006). Cells were run on FACSCalibur Flow Cytometer (Becton Dickinson). Data were analyzed with CellQuest software (Becton Dickinson).
# hES cells = assay: Cell survival assay, 24 hours (Example 2)
# Method: The survival assay was performed as described for the cell adhesion assay above, except that the cells were left in the cell incubator for 24 hours. For inhibition of survival assay, the cells were kept in a medium with function blocking antibodies at the concentrations recommended by the manufacturer or pathway inhibitors at concentrations indicated in the text for 30 minutes, and then plated on the coated dishes. All the experiments were performed in quadruplicate.
# Pluripotent hES cells express α1, α5, β1, β2 and γ1 laminin chains. To compare the adhesion and clonal survival of hES cells plated from single cell suspension to different coating substrata, hES cells growing as monolayers on LN-511 or as clusters on a feeder layer were trypsinized into single cell suspension in O3 medium and plated on cell culture dishes coated with Matrigel, LN-111, LN-511, LN-521 or a mixture of LN-511 and LN-521, in the absence or presence of a ROCK inhibitor (Y-27632) and analyzed after 24 hours.
# [1] = system: Oct4, Nanog, SSEA4, PAX6, SOX17, SOX7; assay: Expression of pluripotency and differentiation markers (immunofluorescence, RT-PCR, FACS); conditions: similar to cells on Matrigel passed as small clumps
# Method: For immunofluorescence studies, ES cells were cultured and fixed in 8-well slide chambers (BD Biosciences) or 96-well plate wells by 4% paraformaldehyde, permeabilized by 0.1% Triton-X and blocked by 10% bovine fetal serum (GIBCO Invitrogen Corporation) in phosphate-saline buffer (PBS) containing 0.1% Tween-20 (Sigma-Aldrich, St. Louis, http://www.sigmaaldrich.com) for one hour. Incubation with primary antibody was performed for 1.5 hours at room temperature. Incubation with secondary antibody and 4,6-diamidino-2-phenylindole (DAPI, Molecular Probes) was performed for 40 minutes. Between incubations, the specimens were washed with 0.1% Tween-20 in PBS buffer three to five times. Specimens were preserved in a fluorescence mounting medium (Dako, Glostrup, Denmark, http://www.dako.com), and observed under a fluorescence microscope (Leica, Heerbrugg, Switzerland, http://www.leica.com).
# Total RNA was isolated using Absolutely RNA Microprep Kit (Stratagene, La Jolla Calif., www.stratagene.com) according to the manufacturer's instructions. cDNA was synthesized using 0.2 μg of total RNA in 20 μl reaction mixture, containing oligo(dT)12-18 primers and Superscript II reverse transcriptase (GIBCO Invitrogen Corporation), according to the manufacturer's instructions. […] All data was analyzed with 7300 System SDS Software v 1.4. […]
substance,measurement,setting,value
"LN-521: protein formed by joining α5, β2 and γ1 laminin chains; human recombinant, produced in HEK293 cells",percentage of Oct4 positive (pluripotent) cells compared with Matrigel,OCT4,much higher percentage
same,survival of Y-27632 treated cells compared with Matrigel,"hES cells; 10 μM of Y-27632, 40,000 cells per 1 cm^2",survived better
same,survival compared with LN-511,"hES cells; 24 hours, absence of ROCK inhibitor",significantly higher
same,survival after 24 hours relative to Matrigel,hES cells; dissociated hES cells,approximately 20 times
same,survival relative to Matrigel,hES cells; exogenous bFGF removed from the O3 medium,20 times
same,survival 24 hours after plating,"hES cells; medium lacking bFGF, LiCl, GABA, pipecolic acid and TGFβ",survived
same,survival 24 hours after plating,"hES cells; single cell suspension, O3 medium, absence of ROCK inhibitor",did so as single cells
same,"expression of pluripotency markers Oct4, Nanog, and SSEA4",[1],stable expression levels

# Reference: US10138292B2, “Cell culture medium” (BIOLAMINA AB, priority 2010, dated 2018)
